How the values were obtained:
Candida albicans [1] = conditions: cited from earlier work
[2] = test system: lactobacilli tested, either alone or in combination; conditions: 0.625% boric acid
Gardnerella vaginalis = conditions: summary statement of the description
Candida albicans [3] = conditions: summary statement of the description
Lactobacillus rhamnosus = conditions: L. rhamnosus single culture, 24 hours at 37° C., 5% CO2, 0.625% boric acid; MRS without boric acid 7.45 × 10^6
Lactobacillus crispatus = conditions: L. crispatus single culture, 24 hours at 37° C., 5% CO2, 0.625% boric acid; MRS without boric acid 1.19 × 10^7
Lactobacillus gasseri = conditions: L. gasseri single culture, 24 hours at 37° C., 5% CO2, 0.625% boric acid; MRS without boric acid 7.28 × 10^6
[4] = test system: mixture of four lactobacilli; conditions: mix of four lactobacilli, 24 hours at 37° C., 5% CO2, 0.625% boric acid; MRS without boric acid 7.63 × 10^6
[5] = vaginal suppositories 600 mg/ovule, throughout the duration of the treatment; cited from earlier work
Lactobacillus jensenii = conditions: L. jensenii single culture, 24 hours at 37° C., 5% CO2, 0.625% boric acid; MRS without boric acid 7.63 × 10^6
[6] = low concentrations, non-therapeutic doses, first 24 hours

Q: Which “pH at which the substance completely inhibits the growth of Candida albicans” value (Candida albicans [1]; in vitro tests) does the source give for `OB(O)O` [boric acid] here?
A: 5-5.9

Q: What about the cellular ergosterol (Candida albicans [1]; [6]) of the same compound?
A: decrease

Q: And the “inhibition of the micro-organisms growth, planktonic and biofilm form” value (Candida albicans [1]; [6])?
A: moderate inhibition

Q: What about the “inhibitory effect on the growth of the lactobacilli” value [2] of the same compound?
A: no inhibitory effect

Q: And the “activity against Gardnerella vaginalis” value (Gardnerella vaginalis)?
A: poor activity

Q: And the “activity against Candida albicans” value (Candida albicans [3])?
A: good activity

Q: What about the “lactobacilli culture count, MRS with boric acid” value (“lactobacilli culture count, MRS” below) (Lactobacillus rhamnosus) of the same compound?
A: 3.17 × 10^6

Q: What about the “lactobacilli culture count, MRS” value (Lactobacillus crispatus) of the same compound?
A: 6.29 × 10^6

Q: And the “lactobacilli culture count, MRS” value (Lactobacillus gasseri)?
A: 2.37 × 10^6

Q: And the “lactobacilli culture count, MRS” value [4]?
A: 7.40 × 10^6

Q: What about the “circulation levels of boric acid” value [5] of the same compound?
A: under 1 μg/ml

Q: And the “lactobacilli culture count, MRS” value (Lactobacillus jensenii)?
A: 7.47 × 10^6

Reference: patent publication US20170071990A1 (Pizeta Group Srl, priority 2014, published 2017)
